Measured values reported in patent US20040072246A1, “System and method for identifying t cell and other epitopes and the like” (priority 2003, published 2004).
Where no end group is shown, it is not given here.

Tests used:
Type in all cases: cell-based, human
T-cell clone CSF-3 = assay: Proliferative assay of T-cell clone CSF-3 (3H-thymidine incorporation); conditions: for EC50: peptide concentration inducing half-maximal proliferation, TCC CSF-3, Table 5; for Potency EC50: concentration inducing half-maximal proliferation; for Potency max. response / Potency % of Max. response / Potency % of max. response: percentage of highest proliferative response (100% = 28,255 c.p.m. for peptide 77)
Description: (§1) The proliferation of TCC in response to PS-SCL or individual peptides was tested by seeding in duplicate 2×10^4 T cells, 5×10^4 irradiated PBMC with or without mixtures from PS-SCL or peptide. Proliferation was measured by [^3H]-thymidine incorporation (Hemmer B. et al., 2000, J Immunol 164:861).
(§2) The proliferation of T-cell clones in response to PS-SCL or individual peptides was tested by seeding in duplicate 2×10^4 T-cells, 5×10^4 irradiated peripheral blood mononuclear cells with or without 200 μg/ml PS-SCL or peptide (Hemmer, B. et al. 1998, J Pept Res 52: 338-345). Proliferation was measured by ^3H-thymidine incorporation (Hemmer, B. et al. 1997, J Exp Med 185: 1651-1659). Experiments were repeated at least twice. HLA restriction was determined by using bare lymphocyte syndrome cells transfected with DR2a (DRB5*0101) or DR2b (DRB1*1501) (provided by G. Nepom, University of Washington, Seattle) (Kovats, S. et al. 1994, J Exp Med 179: 2017-2022). The proliferation of peripheral blood mononuclear cells was measured in an IL-7-modified 7-day primary proliferation assay. Peripheral blood mononuclear cells (1×10^5 per well; 10 wells each and 10 control wells per plate) were seeded with 10 ng/ml IL-7 and 15 μg/ml peptide. Then, 1 μCi ^3H-thymidine/well was added at day 7 for 12 h before radioactivity was measured. Wells were considered positive if the counts per minute exceeded the average background proliferation+3 s.d. (Reece J. C. et al., 1993, Immunol 151: 6175-6184).

[1] = test system: peripheral blood mononuclear cells; assay: IL-7-modified 7-day primary proliferation assay of peripheral blood mononuclear cells; conditions: number of wells of 10 with positive primary proliferative response, 15 μg/ml peptide
Description: as §2

[2] = test system: TCRζ-chain phosphoisoforms / ZAP-70 in CSF-3 cells; assay: T-cell-receptor signaling (tyrosine phosphorylation of TCR subunits, ZAP-70 immunoprecipitation); conditions: CSF-3 cells stimulated 5 or 10 min
Description: T-cells (1×10^6) were added to peptide-pulsed bare lymphocyte syndrome cells (2×10^6) and, after centrifugation (10 s at 300 g), were incubated at 37° C., washed once with PBS and incubated for 25 min on ice in lysis buffer (1% Nonidet-P40, 10 mM Tris-HCl, pH 7.2, 140 mM NaCl, 2 mM EDTA, 5 mM iodoacetamide, 1 mM Na3VO4 and complete protease inhibitor ‘cocktail’; Boehringer). After nuclear debris were removed, proteins in lysate supernatants were immunoprecipitated by incubation at 4° C. for 12 h with rabbit antibody against ZAP-70 (provided by L. Samelson, National Institute of Child Health and Human Development, National Institutes of Health). Proteins were separated by SDS-PAGE and immunoblotted with 4G10, a mouse monoclonal antibody against phosphotyrosine (Upstate Biotechnology, Lake Placid, N.Y.).

TCC GP5F11 = assay: Proliferative assay of TCC GP5F11 (3H-thymidine incorporation); conditions: FIG. 4; result in words
Description: as §1

[3] = human autoantigenic mimics, Table 9
[4] = background 1,306 ± 582 c.p.m., Table 9
[5] = B. burgdorferi peptides, Table 8
[6] = background 2,899 ± 1,417 c.p.m., Table 8
[7] = background 2,899 ± 1,417 c.p.m., Table 10

| Substance | EC50 (T-cell clone CSF-3) | Potency EC50 (T-cell clone CSF-3; [5]) | Potency % of Max. response (T-cell clone CSF-3; Table 8) | PB PP [1, 6] | also measured |
| --- | --- | --- | --- | --- | --- |
| DNIFKKETLI [D N I F K K E T L I, DNIFKKETLI] | 1 µg/mL | – | – | – | – |
| DNITSSVLFN [Peptide 71, DNITSSVLFN] | – | – | – | – | Potency EC50 (T-cell clone CSF-3; [3]): 0.1 to 1 µg/mL; Potency max. response (T-cell clone CSF-3; Table 9): 60.6%; PB PP [1, 4]: 5; effect on early TCR signaling events (TCRζ-chain p38 phospho-isoforms, recruitment of active ZAP-70) [2]: fall agonist response |
| ENIKKILLRE [Peptide 46, ENIKKILLRE] | – | 0.1 to 1 µg/mL | 65.1% | 3 | – |
| ENIYYSSVRT [Peptide 77, ENIYYSSVRT] | – | – | – | – | Potency EC50 (T-cell clone CSF-3; viral mimic peptides, Table 10): 1 to 10 µg/mL; Potency % of max. response (T-cell clone CSF-3; Table 10): 100%; PB PP [1, 7]: 3 |
| ENVKKSRRLI [Peptide 66, ENVKKSRRLI] | – | – | – | – | Potency EC50 (T-cell clone CSF-3; [3]): 0.1 to 1 µg/mL; Potency max. response (T-cell clone CSF-3; Table 9): 64.1%; PB PP [1, 4]: 0 |
| FFIKKRSLII [Peptide 54, FFIKKRSLII] | 1 µg/mL | 1 to 10 µg/mL | 59.8% | 5 | – |
| FNIIKSLLGG [52′, FNIIKSLLGG] | – | – | – | – | Potency EC50 (T-cell clone CSF-3; viral mimic peptides, Table 10): 1 to 10 µg/mL; stimulation (proliferation) of T-cell clone CSF-3 (T-cell clone CSF-3; result in words): stimulatory |
| FNIIKVHSSL [Peptide 37, FNIIKVHSSL] | – | 0.001 to 0.01 µg/mL | 69.3% | 1 | – |
| FNITSSIRNK [Peptide 75, FNITSSIRNK] | – | – | – | – | Potency EC50 (T-cell clone CSF-3; viral mimic peptides, Table 10): 1 µg/mL; Potency % of max. response (T-cell clone CSF-3; Table 10): 63.5%; PB PP [1, 7]: 1 |
| FNITSSTCEL [Peptide 64, FNITSSTCEL] | – | – | – | – | Potency EC50 (T-cell clone CSF-3; [3]): 0.1 to 1 µg/mL; Potency max. response (T-cell clone CSF-3; Table 9): 66.3%; PB PP [1, 4]: 1 |
| FNIYKRVVDN [F N I Y K R V V D N, FNIYKRVVDN] | 1 µg/mL | – | – | – | – |
| GHIKKKRVEA [Peptide 63, GHIKKKRVEA] | – | – | – | – | Potency EC50 (T-cell clone CSF-3; [3]): 1 to 10 µg/mL; Potency max. response (T-cell clone CSF-3; Table 9): 56.5%; PB PP [1, 4]: 0 |
| LHIISKRVEA [Peptide 61, LHIISKRVEA] | – | – | – | – | Potency EC50 (T-cell clone CSF-3; [3]): 0.1 to 1 µg/mL; Potency max. response (T-cell clone CSF-3; Table 9): 70.0%; PB PP [1, 4]: 0 |
| LNIKNSKLEI [Peptide 30, LNIKNSKLEI] | – | <0.001 µg/mL | 64.2% | 0 | – |
| LNITSSSYLF [Peptide 42, LNITSSSYLF] | – | 1 to 10 µg/mL | 71.4% | 0 | – |
| NNIDKKVYTN [N N I D K K V Y T N, NNIDKKVYTN] | 1 to 10 µg/mL | – | – | – | – |

| Substance | EC50 (T-cell clone CSF-3) | Potency EC50 (T-cell clone CSF-3; [5]) | Potency % of Max. response (T-cell clone CSF-3; Table 8) | PB PP [1, 6] | also measured |
| --- | --- | --- | --- | --- | --- |
| NNIKSKVDNA [Peptide 47, NNIKSKVDNA] | – | 1 to 10 µg/mL | 80.6% | 0 | – |
| NNIYKKALIS [Peptide 59, NNIYKKALIS] | 1 µg/mL | 0.1 to 1 µg/mL | 68.1% | 3 | effect on early TCR signaling events (TCRζ-chain p38 phospho-isoforms, recruitment of active ZAP-70) [2]: fall agonist response |
| PIP5 KIII246-255: low-scoring peptide derived from H. sapiens phosphatidylinositol-4-phosphate 5-kinase type III (LDPSEPRTPV; UniProt Q9Y2I7 246-255, looked up, fragment) | – | – | – | – | proliferative response of TCC GP5F11 (potency) (TCC GP5F11): non-stimulatory |
| PNITFSVVYN [Peptide 74, PNITFSVVYN] | – | – | – | – | Potency EC50 (T-cell clone CSF-3; viral mimic peptides, Table 10): 0.1 to 1 µg/mL; Potency % of max. response (T-cell clone CSF-3; Table 10): 78.3%; PB PP [1, 7]: 0 |
| QAIGKKTQNN [Peptide 26, QAIGKKTQNN] | – | <0.001 µg/mL | 80.8% | 3 | – |
| RNIFKKTVEN [R N I F K K T V E N, RNIFKKTVEN] | >100 µg/mL | – | – | – | – |
| SFIYSVVCLV [Peptide 62, SFIYSVVCLV] | – | – | – | – | Potency EC50 (T-cell clone CSF-3; [3]): 0.1 to 1 µg/mL; Potency max. response (T-cell clone CSF-3; Table 9): 75.7%; PB PP [1, 4]: 9 |
| SNIIKKTSED [Peptide 57, SNIIKKTSED] | 1 µg/mL | 0.1 to 1 µg/mL | 65.2% | 4 | – |
| SNIIKSLSLF [S N I I K S L S L F, SNIIKSLSLF] | 0.1 to 1 µg/mL | – | – | – | – |
| SNIKSKLILV [S N I K S K L I L V, SNIKSKLILV] | 1 µg/mL | – | – | – | – |
| TLITKKISAI [Peptide 28, TLITKKISAI] | – | <0.001 µg/mL | 65.9% | 1 | – |
| WMKQNIGRFL [predicted stimulatory peptide with optimal amino acids in each position for TCC GP5F11] | – | – | – | – | proliferative response of TCC GP5F11 (potency) (TCC GP5F11): two orders of magnitude more potent than the target sequence |
| YNIIVSSLLL [Y N I I V S S L L L, YNIIVSSLLL] | 1 to 10 µg/mL | – | – | – | – |
| YNIKKIKVED [Peptide 38, YNIKKIKVED] | – | 0.1 to 1 µg/mL | 62.7% | 1 | – |
| YVKQNTLKLA (listed as Influenza virus) [Flu-HA308-317, influenza virus hemagglutinin decamer, target peptide of TCC GP5F11, reference compound] | – | – | – | – | proliferative response of TCC GP5F11 (potency) (TCC GP5F11): intermediate potency |
